# Test results as given in patent US8802700B2 (Vertex Pharmaceuticals Incorporated, priority 2010, dated 2014).
# Molecular target: T1, ΔF508-CFTR (Homo sapiens, UniProt P13569, DEL508-508)
# T1 construct: expressed in transfected cells
# Experiment: Membrane potential optical assay (FRET voltage-sensor dyes, VIPR), identification of potentiator compounds
# Assay type: cell-based
# Conditions: Table 3; assay not given
# How it was run: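 NIH3T3 mouse fibroblasts stably expressing ΔF508-CFTR, cultured 24 h at 27 °C, were loaded with FRET voltage dyes CC2-DMPE and DiSBAC2(3). Double-addition format: first addition of Cl⁻-free (gluconate) medium with or without compound; membrane-potential change read as fluorescence on VIPR II.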
# T1 sequence (P13569 with tags, fused parts or gaps DEL508-508): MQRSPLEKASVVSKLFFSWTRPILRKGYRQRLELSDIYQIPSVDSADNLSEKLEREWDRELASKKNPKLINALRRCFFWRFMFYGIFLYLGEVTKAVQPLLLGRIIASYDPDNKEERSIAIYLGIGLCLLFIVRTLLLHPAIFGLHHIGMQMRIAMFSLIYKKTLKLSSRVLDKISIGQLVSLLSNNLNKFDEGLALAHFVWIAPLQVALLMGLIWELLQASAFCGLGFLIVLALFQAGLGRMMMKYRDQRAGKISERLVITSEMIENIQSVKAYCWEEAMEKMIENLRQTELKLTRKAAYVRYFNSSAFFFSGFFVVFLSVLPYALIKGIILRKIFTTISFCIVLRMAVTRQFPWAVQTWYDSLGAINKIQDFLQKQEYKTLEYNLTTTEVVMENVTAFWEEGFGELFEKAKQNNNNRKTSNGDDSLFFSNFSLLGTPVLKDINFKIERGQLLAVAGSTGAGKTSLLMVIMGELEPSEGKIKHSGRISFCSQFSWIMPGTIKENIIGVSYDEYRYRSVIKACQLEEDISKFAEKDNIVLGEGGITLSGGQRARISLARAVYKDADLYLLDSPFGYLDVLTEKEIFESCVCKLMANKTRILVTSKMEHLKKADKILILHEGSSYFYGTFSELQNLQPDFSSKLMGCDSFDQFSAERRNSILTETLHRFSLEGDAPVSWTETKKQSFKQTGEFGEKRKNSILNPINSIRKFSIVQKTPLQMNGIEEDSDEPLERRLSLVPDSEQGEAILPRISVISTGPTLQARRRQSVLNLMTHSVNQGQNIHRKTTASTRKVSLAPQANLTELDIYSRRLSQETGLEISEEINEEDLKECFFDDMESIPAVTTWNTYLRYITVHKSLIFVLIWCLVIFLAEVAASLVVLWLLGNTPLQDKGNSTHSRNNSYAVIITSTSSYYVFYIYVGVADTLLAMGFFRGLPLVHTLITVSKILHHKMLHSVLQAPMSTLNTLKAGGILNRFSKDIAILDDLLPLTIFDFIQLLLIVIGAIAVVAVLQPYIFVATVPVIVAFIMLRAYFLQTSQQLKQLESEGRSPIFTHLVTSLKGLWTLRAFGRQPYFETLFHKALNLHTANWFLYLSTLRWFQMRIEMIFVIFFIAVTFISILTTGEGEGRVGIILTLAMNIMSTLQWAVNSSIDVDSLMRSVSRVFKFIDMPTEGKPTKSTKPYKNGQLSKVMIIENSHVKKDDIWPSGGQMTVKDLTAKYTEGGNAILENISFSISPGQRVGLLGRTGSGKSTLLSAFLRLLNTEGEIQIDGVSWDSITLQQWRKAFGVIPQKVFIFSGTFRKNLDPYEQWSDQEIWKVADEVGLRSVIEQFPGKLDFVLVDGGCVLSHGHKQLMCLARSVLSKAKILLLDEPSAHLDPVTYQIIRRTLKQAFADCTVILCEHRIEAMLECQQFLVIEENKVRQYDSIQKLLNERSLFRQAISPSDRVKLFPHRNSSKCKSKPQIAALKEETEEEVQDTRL
row,SMILES,EC50 [µM]
1,"O=C(Nc1ccccc1-c1cccc(F)c1)c1c[nH]c2ccccc2c1=O [Compound 277, N-[2-(3-fluorophenyl)phenyl]-4-oxo-1H-quinoline-3-carboxamide]",< 10
2,"CCOC(=O)Nc1cc(NC(=O)c2c[nH]c3ccccc3c2=O)ccc1CC [Compound 298, [2-ethyl-5-[(4-oxo-1H-quinolin-3-yl)carbonylamino]phenyl]aminoformic acid ethyl ester]",< 10
3,"CCCc1ccc(NC(=O)c2c[nH]c3ccccc3c2=O)cc1N(C)C [Compound 462, N-(3-dimethylamino-4-propyl-phenyl)-4-oxo-1H-quinoline-3-carboxamide]",< 10
4,"CCc1ccc(N)cc1NC(=O)c1c[nH]c2ccccc2c1=O [Compound 282, N-(5-amino-2-ethyl-phenyl)-4-oxo-1H-quinoline-3-carboxamide]",< 10
5,"Cc1cc(-c2ccccc2NC(=O)c2c[nH]c3ccccc3c2=O)ccc1F [Compound 79, N-[2-(4-fluoro-3-methyl-phenyl)phenyl]-4-oxo-1H-quinoline-3-carboxamide]",< 10
6,"CC(C)c1ccc(NC(=O)c2c[nH]c3ccc(F)cc3c2=O)cc1O [Compound 597, 6-fluoro-N-(3-hydroxy-4-isopropyl-phenyl)-4-oxo-1H-quinoline-3-carboxamide]",< 10
7,"CCc1ccc(NC(=O)c2c[nH]c3ccccc3c2=O)cc1 [Compound 463, N-(4-ethylphenyl)-4-oxo-1H-quinoline-3-carboxamide]",< 10

# Same assay, conditions: Table 3; assay not given; read-out: % Activity (% Efficacy, relative efficacy)
row,SMILES,Emax [%]
1,"CC(C)(C)c1ccc(NC(=O)c2c[nH]c3ccccc3c2=O)c(Cl)c1 [Compound 362, N-(2-chloro-4-tert-butyl-phenyl)-4-oxo-1H-quinoline-3-carboxamide]",25 to 100
2,"CCCCc1ccc(NC(=O)c2c[nH]c3ccccc3c2=O)cc1 [Compound 324, N-(4-butylphenyl)-4-oxo-1H-quinoline-3-carboxamide]",25 to 100
3,"O=C(Nc1ccccc1-c1cccc(F)c1)c1c[nH]c2ccccc2c1=O [Compound 277, N-[2-(3-fluorophenyl)phenyl]-4-oxo-1H-quinoline-3-carboxamide]",> 100
4,"CC(C)(C)c1cc2cc[nH]c2cc1NC(=O)c1c[nH]c2cc(F)c(F)cc2c1=O [Compound 646, 6,7-difluoro-4-oxo-N-(5-tert-butyl-1H-indol-6-yl)-1H-quinoline-3-carboxamide]",25 to 100
5,"CCOC(=O)Nc1cc(NC(=O)c2c[nH]c3ccccc3c2=O)ccc1CC [Compound 298, [2-ethyl-5-[(4-oxo-1H-quinolin-3-yl)carbonylamino]phenyl]aminoformic acid ethyl ester]",25 to 100
6,"CCCc1ccc(NC(=O)c2c[nH]c3ccccc3c2=O)cc1N(C)C [Compound 462, N-(3-dimethylamino-4-propyl-phenyl)-4-oxo-1H-quinoline-3-carboxamide]",25 to 100
7,"CC(C)(C)c1ccccc1Oc1ccccc1NC(=O)c1c[nH]c2ccccc2c1=O [Compound 178, 4-oxo-N-[2-(2-tert-butylphenoxy)phenyl]-1H-quinoline-3-carboxamide]",25 to 100
8,"CC(C)(C)c1cc2cc[nH]c2cc1NC(=O)c1c[nH]c2ccc(O)cc2c1=O [Compound 679, 6-hydroxy-4-oxo-N-(5-tert-butyl-1H-indol-6-yl)-1H-quinoline-3-carboxamide]",25 to 100
9,"N#Cc1cc(Cl)cc(Cl)c1NC(=O)c1c[nH]c2ccccc2c1=O [Compound 369, N-(2,4-dichloro-6-cyano-phenyl)-4-oxo-1H-quinoline-3-carboxamide]",< 25
10,"Nc1nc2ccc(NC(=O)c3c[nH]c4ccccc4c3=O)cc2s1 [Compound 671, N-(2-aminobenzothiazol-6-yl)-4-oxo-1H-quinoline-3-carboxamide]",25 to 100
11,"O=C(Nc1cc2c(cc1O)CCCC2)c1c[nH]c2ccccc2c1=O [Compound 56, 1,4-dihydro-N-(1,2,3,4-tetrahydro-6-hydroxynaphthalen-7-yl)-4-oxoquinoline-3-carboxamide]",25 to 100
12,"O=C(Nc1cc(Cl)ccc1Oc1ccccc1)c1c[nH]c2ccccc2c1=O [Compound 292, N-(5-chloro-2-phenoxy-phenyl)-4-oxo-1H-quinoline-3-carboxamide]",25 to 100
13,"O=C(Nc1ccccc1C(O)c1ccccc1)c1c[nH]c2ccccc2c1=O (centres unmarked) [Compound 228, N-[2-(hydroxy-phenyl-methyl)phenyl]-4-oxo-1H-quinoline-3-carboxamide]",25 to 100
14,"Cc1nc2cc(NC(=O)c3c[nH]c4ccccc4c3=O)ccc2s1 [Compound 44, N-(2-methylbenzothiazol-5-yl)-4-oxo-1H-quinoline-3-carboxamide]",25 to 100
15,"CN(Cc1ccccc1NC(=O)c1c[nH]c2ccccc2c1=O)C1CCCCC1 [Compound 354, N-[2-[(cyclohexyl-methyl-amino)methyl]phenyl]-4-oxo-1H-quinoline-3-carboxamide]",25 to 100
16,"CCc1ccc(N)cc1NC(=O)c1c[nH]c2ccccc2c1=O [Compound 282, N-(5-amino-2-ethyl-phenyl)-4-oxo-1H-quinoline-3-carboxamide]",25 to 100
17,"Cc1cccc2[nH]cc(C(=O)Nc3ccc(N4C[C@@H]5CC[C@H]4C5)cc3C(F)(F)F)c(=O)c12 [Compound 582, N-(4-((1S,4R)-2-azabicyclo[2.2.1]heptan-2-yl)-2-(trifluoromethyl)phenyl)-5-methyl-4-oxo-1,4-dihydroquinoline-3-carboxamide]",25 to 100
18,"CC(C)(C)OC(=O)N1CCCc2ccc(NC(=O)c3c[nH]c4ccccc4c3=O)cc21 [Compound 183, 7-[(4-oxo-1H-quinolin-3-yl)carbonylamino]-1,2,3,4-tetrahydroquinoline-1-carboxylic acid tert-butyl ester]",25 to 100
19,"O=C(Nc1ccccc1SC(F)(F)F)c1c[nH]c2ccccc2c1=O [Compound 371, 4-oxo-N-[2-(trifluoromethylsulfanyl)phenyl]-1H-quinoline-3-carboxamide]",25 to 100
20,"N#CCc1c[nH]c2cc(NC(=O)c3c[nH]c4ccccc4c3=O)ccc12 [Compound 96, N-[3-(cyanomethyl)-1H-indol-6-yl]-4-oxo-1H-quinoline-3-carboxamide]",25 to 100
21,"CC(C)(C)c1cccc(NC(=O)c2c[nH]c3ccc(F)cc3c2=O)c1 [Compound 664, 6-fluoro-4-oxo-N-(3-tert-butylphenyl)-1H-quinoline-3-carboxamide]",25 to 100
22,"COc1c(C(=O)Nc2ccc(C(C)(C)C)c(O)c2)cnc2ccccc12 [Compound 415, N-(3-Hydroxy-4-tert-butyl-phenyl)-4-methoxy-quinoline-3-carboxamide]",25 to 100

row,SMILES,Emax [%]
1,"Cc1ccc2[nH]cc(C(=O)Nc3cc(O)c(C(C)(C)C)cc3C(C)(C)C)c(=O)c2c1 [Compound 688, N-(5-hydroxy-2,4-ditert-butyl-phenyl)-6-methyl-4-oxo-1H-quinoline-3-carboxamide]",25 to 100
2,"O=C(Nc1ccc(C23CC4CC(CC(C4)C2)C3)cc1)c1c[nH]c2ccccc2c1=O [Compound 455, N-[4-(1-adamantyl)phenyl]-4-oxo-1H-quinoline-3-carboxamide]",25 to 100
3,"Cc1ccc(C)c(NC(=O)c2c[nH]c3ccccc3c2=O)c1 [Compound 434, N-(2,5-dimethylphenyl)-4-oxo-1H-quinoline-3-carboxamide]",25 to 100
4,"CC(C)(C)c1ccc(NC(=O)c2c[nH]c3cccc(O)c3c2=O)cc1O [Compound 633, 5-hydroxy-N-(3-hydroxy-4-tert-butyl-phenyl)-4-oxo-1H-quinoline-3-carboxamide]",25 to 100
5,"COc1ccccc1Oc1ccc(C(F)(F)F)cc1NC(=O)c1c[nH]c2ccccc2c1=O [Compound 3, N-[2-(2-methoxyphenoxy)-5-(trifluoromethyl)phenyl]-4-oxo-1H-quinoline-3-carboxamide]",25 to 100
6,"O=C(Nc1ccc2cc[nH]c2c1)c1cnc2cc(C(F)(F)F)cc(C(F)(F)F)c2c1O [Compound 130, 4-hydroxy-N-(1H-indol-6-yl)-5,7-bis(trifluoromethyl)quinoline-3-carboxamide]",25 to 100
7,"O=C(Nc1ccc(C2CCCCC2)c(O)c1)c1c[nH]c2ccccc2c1=O [Compound 564, N-(4-cyclohexyl-3-hydroxy-phenyl)-4-oxo-1H-quinoline-3-carboxamide]",25 to 100
8,"CCOc1ccccc1-c1cc(C(C)(C)C)c(O)cc1NC(=O)c1c[nH]c2ccccc2c1=O [Compound 23, N-[2-(2-ethoxyphenyl)-5-hydroxy-4-tert-butyl-phenyl]-4-oxo-1H-quinoline-3-carboxamide]",25 to 100
9,"Cc1ccc(C#N)c(NC(=O)c2c[nH]c3ccccc3c2=O)c1 [Compound 89, N-(2-cyano-5-methyl-phenyl)-4-oxo-1H-quinoline-3-carboxamide]",< 25
10,"CCc1cccc(C)c1NC(=O)c1c[nH]c2ccccc2c1=O [Compound 180, N-(2-ethyl-6-methyl-phenyl)-4-oxo-1H-quinoline-3-carboxamide]",25 to 100
11,"CC(C)(C)c1ccc(NC(=O)c2c[nH]c3cccc(O)c3c2=O)cc1F [Compound 491, N-(3-fluoro-4-tert-butyl-phenyl)-5-hydroxy-4-oxo-1H-quinoline-3-carboxamide]",25 to 100
12,"Cc1cc(-c2ccccc2NC(=O)c2c[nH]c3ccccc3c2=O)ccc1F [Compound 79, N-[2-(4-fluoro-3-methyl-phenyl)phenyl]-4-oxo-1H-quinoline-3-carboxamide]",25 to 100
13,"O=C(Nc1cc2[nH]ccc2cc1F)c1c[nH]c2cccc(O)c2c1=O [Compound 596, N-(5-fluoro-1H-indol-6-yl)-5-hydroxy-4-oxo-1H-quinoline-3-carboxamide]",25 to 100
14,"CC(C)c1ccc(NC(=O)c2c[nH]c3ccc(F)cc3c2=O)cc1O [Compound 597, 6-fluoro-N-(3-hydroxy-4-isopropyl-phenyl)-4-oxo-1H-quinoline-3-carboxamide]",25 to 100
15,"CCOc1ccc2[nH]cc(C(=O)Nc3cc4[nH]ccc4cc3C(C)(C)C)c(=O)c2c1 [Compound 681, 6-ethoxy-4-oxo-N-(5-tert-butyl-1H-indol-6-yl)-1H-quinoline-3-carboxamide]",25 to 100
16,"O=C(Nc1ccc2c(c1)OCO2)c1c[nH]c2ccccc2c1=O [Compound 437, N-benzo[1,3]dioxol-5-yl-4-oxo-1H-quinoline-3-carboxamide]",< 25
17,"CCc1ccc(NC(=O)c2c[nH]c3ccccc3c2=O)cc1 [Compound 463, N-(4-ethylphenyl)-4-oxo-1H-quinoline-3-carboxamide]",25 to 100
18,"N#Cc1cc(N2CCCC2)ccc1NC(=O)c1c[nH]c2ccccc2c1=O [Compound 622, N-(2-cyano-4-pyrrolidin-1-yl-phenyl)-4-oxo-1H-quinoline-3-carboxamide]",25 to 100
19,"Cc1cc(C2CCCCC2)ccc1NC(=O)c1c[nH]c2ccccc2c1=O [Compound 647, N-(4-cyclohexyl-2-methyl-phenyl)-4-oxo-1H-quinoline-3-carboxamide]",25 to 100
20,"CCc1ccc(N(C)C)cc1NC(=O)c1c[nH]c2ccccc2c1=O [Compound 409, N-(5-dimethylamino-2-ethyl-phenyl)-4-oxo-1H-quinoline-3-carboxamide]",25 to 100
21,"O=C(Nc1ccc(C2CCCCC2)c(O)c1)c1c[nH]c2cccc(O)c2c1=O [Compound 522, N-(4-cyclohexyl-3-hydroxy-phenyl)-5-hydroxy-4-oxo-1H-quinoline-3-carboxamide]",25 to 100
